Consider 1 compound from BindingDB's records for patent US20240228491 (Scinnohub Pharmaceutical, 2024).

Molecules are shown by their SMILES.

The test deals with S-adenosylmethionine synthase isoform type-2 (Homo sapiens, UniProt P31153). As to the kind of experiment: Enzymatic Activity Test. The method, then:
The specific steps were as follows: The compounds having the test starling concentration of 1 uM or 10 uM were diluted into 10 concentration points in a 3-fold gradient. 250 nL of the solutions of the compounds to be tested with 10 different concentrations were taken and added into a 384 well plate for later use. 20 ug/mL of MAT2a enzyme solution was prepared with Assay buffer (50 mM Tris, 50 mM KCl, 10 mM MgCl2, 0.05% polyoxyethylene lauryl ether, pH 8.0). 15 uL of the MAT2a enzyme solution at 20 ug/mL was add into the wells of the compounds to be tested at different concentrations; and 15 uL of Assay buffer was added into the negative control well. An incubation was carried out for 15 minutes after shaking for mixing well. A mixed substrate solution (comprising 400 uM ATP and 600 uM L-Methionine) was prepared with Assay buffer. 10 uL of the mixed substrate solution was added to the positive control well, the compound to be tested well, and the negative control well, respectively, and the reaction began, for a reaction time of 150 min. Then, 50 uL of the reaction stop solution (BIOMOL Green Reagent Enzo lifesciences, Cargo No. BML-AK111-1000) was added to stop the reaction, followed by being centrifuged at 1000 rpm for 60 s and then being incubated for 15 min. OD620 was read and data were processed.

Chain of S-adenosylmethionine synthase isoform type-2 (P31153 whole entry, canonical isoform): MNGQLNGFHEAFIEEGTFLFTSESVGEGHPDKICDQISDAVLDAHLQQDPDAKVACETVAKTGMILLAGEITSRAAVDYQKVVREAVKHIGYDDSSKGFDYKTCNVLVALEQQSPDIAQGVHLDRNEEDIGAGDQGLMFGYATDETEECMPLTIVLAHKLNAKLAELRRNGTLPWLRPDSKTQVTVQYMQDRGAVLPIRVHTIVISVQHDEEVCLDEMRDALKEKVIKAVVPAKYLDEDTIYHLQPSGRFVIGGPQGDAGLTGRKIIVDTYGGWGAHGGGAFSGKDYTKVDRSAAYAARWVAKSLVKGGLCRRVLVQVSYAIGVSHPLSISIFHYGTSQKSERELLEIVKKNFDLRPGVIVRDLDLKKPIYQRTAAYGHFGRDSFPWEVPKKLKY

On to `CNc1c(-c2ccsc2)c(=O)n(-c2ccccc2)c2nc(C(F)(F)F)ccc12` [US20240228491, Example 4], for which 20.2 nM corresponded to half-maximal inhibition (IC50).
